In the NIST ThermoML archive (doi:10.1016/j.jct.2011.08.016):

Details: Liquid, Vibrating tube method

CCCCCCC [heptane]
mass density [kg/m3]
Details | 313.18 K | 333.04 K | 353.06 K
1000 kPa | 668.09 | 650.66 | –
1010 kPa | – | – | 632.6
2000 kPa | 669.03 | 651.8 | 634.02
3000 kPa | 669.97 | 652.94 | 635.41
4000 kPa | 670.93 | 654.08 | 636.78
5000 kPa | – | 655.23 | 638.15
5010 kPa | 671.9 | – | –
6000 kPa | 672.87 | 656.38 | 639.47
7000 kPa | 673.86 | 657.54 | 640.8
8000 kPa | 674.87 | 658.65 | 642.1
9000 kPa | 675.87 | 659.81 | –
9010 kPa | – | – | 643.4
10000 kPa | 676.86 | 660.92 | 644.66
11000 kPa | 677.85 | 662.03 | 645.92
12000 kPa | 678.83 | 663.1 | 647.13
13000 kPa | 679.81 | 664.2 | 648.37
14000 kPa | 680.76 | 665.25 | 649.56
15000 kPa | 681.7 | 666.31 | 650.72
16000 kPa | 682.62 | 667.33 | 651.88
17000 kPa | 683.53 | 668.33 | 653
18000 kPa | 684.41 | – | –
18030 kPa | – | 669.34 | 654.12
19000 kPa | 685.26 | 670.26 | 655.16
20000 kPa | 686.11 | 671.2 | 656.22
21000 kPa | 686.92 | – | 657.27
22000 kPa | 687.67 | 673.01 | 658.25
23000 kPa | 688.42 | 673.86 | 659.24
23910 kPa | 689.07 | – | –
24000 kPa | – | 674.7 | 660.2
25000 kPa | 689.85 | 675.52 | 661.14
